Source: the supplement of paper PMC4977894
Counter-ions that a name gives are not always drawn. ± gives the standard deviation of the averaged measurements.

Assays:
[1] = test system: Homo sapiens (human subject panel, olfactory perception); assay: perceived odor intensity rating (rating 0-100); higher = stronger perceived smell
Procedure, shortened: (§1)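 Values for familiarity, intensity and pleasantness are averaged over subjects. The panel of 55 healthy people aged 18–50 excluded the six lowest performers and rated each paraffin-oil dilution of a molecule at high and low concentrations. Ratings were made only for stimuli the subject reported smelling, on a slider converted to a 0–100 scale.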

[2] = test system: Homo sapiens (human subject panel, olfactory perception); assay: perceived odor pleasantness rating (rating 0-100); higher = more pleasant
Procedure, shortened: as §1

[3] = test system: Homo sapiens (human subject panel, olfactory perception); assay: perceived odor familiarity rating (rating 0-100); higher = more familiar
Procedure, shortened: as §1

[4] = odor dilution in paraffin oil: 1/10
[5] = odor dilution in paraffin oil: 1/1,000
[6] = odor dilution in paraffin oil: 1/100,000
[7] = odor dilution in paraffin oil: 1/10,000,000

SMILES | perceived odor intensity rating [1, 4] | perceived odor intensity rating [1, 5] | perceived odor pleasantness rating [2, 4] | perceived odor pleasantness rating [2, 5] | perceived odor familiarity rating [3, 4] | perceived odor familiarity rating [3, 5] | perceived odor intensity rating [1, 6] | perceived odor pleasantness rating [2, 6] | perceived odor familiarity rating [3, 6] | perceived odor intensity rating [1, 7] | perceived odor pleasantness rating [2, 7] | perceived odor familiarity rating [3, 7]
Cc1ncc(C[n+]2csc(CCO)c2C)c(N)n1 [Thiamine hydrochloride] | 67.1 ± 23 | 61.6 ± 25 | 35.5 ± 25 | 36.4 ± 22 | 51.5 ± 29 | 44.7 ± 28 |  |  |  |  |  | 
c1cscn1 [Thiazole] |  | 25.1 ± 27 |  | 43.2 ± 24 |  | 41.3 ± 29 | 18.8 ± 22 | 45.5 ± 21 | 27.2 ± 25 |  |  | 
c1ccsc1 [Thiophene (replicate)] |  | 66.4 ± 25 |  | 33.7 ± 27 |  | 53.9 ± 31 | 27.6 ± 31 | 36 ± 22 | 42.1 ± 26 |  |  | 
c1ccsc1 [Thiophene] |  | 32.8 ± 34 |  | 28.7 ± 20 |  | 39.3 ± 29 | 39.5 ± 30 | 40.8 ± 24 | 43.1 ± 30 |  |  | 
CC(=O)OCC(COC(C)=O)OC(C)=O [Triacetin] | 57.8 ± 29 | 45.1 ± 30 | 33.1 ± 25 | 38.9 ± 24 | 54.5 ± 35 | 39.2 ± 35 |  |  |  |  |  | 
CCCCOC(=O)CC(CC(=O)OCCCC)(OC(C)=O)C(=O)OCCCC [Tributyl-2-Acetylcitrate] | 41.4 ± 30 | 6.93 ± 11 | 43.2 ± 22 | 51.5 ± 23 | 35.9 ± 28 | 37.7 ± 28 |  |  |  |  |  | 
CCCC(=O)OCC(COC(=O)CCC)OC(=O)CCC [Tributyrin] |  | 68.8 ± 28 |  | 22.2 ± 22 |  | 49.9 ± 30 | 31.9 ± 29 | 39.5 ± 23 | 36.9 ± 30 |  |  | 
CCOC(=O)CC(O)(CC(=O)OCC)C(=O)OCC [Triethyl citrate] | 31.3 ± 30 | 20.4 ± 24 | 41.1 ± 19 | 46.2 ± 24 | 41.4 ± 29 | 26.4 ± 22 |  |  |  |  |  | 
NCCc1ccc(O)cc1 [Tyramine] | 53.2 ± 33 | 20.4 ± 25 | 34.7 ± 28 | 58 ± 26 | 51 ± 31 | 35.4 ± 34 |  |  |  |  |  | 
CCCCCCCCCCC(=O)O [Undecanoic acid] | 81.8 ± 19 | 57.4 ± 33 | 22.9 ± 21 | 31.1 ± 24 | 45.9 ± 32 | 41.9 ± 34 |  |  |  |  |  | 
COc1cc(C=O)ccc1OC(C)=O [Vanillin Acetate] | 64.3 ± 26 | 54.6 ± 27 | 74.3 ± 22 | 72.5 ± 22 | 69.6 ± 28 | 65.3 ± 28 |  |  |  |  |  | 
COc1ccc(C=O)cc1OC [Veratraldehyde] | 74.1 ± 23 | 35.2 ± 29 | 75.3 ± 22 | 62.4 ± 22 | 75.1 ± 26 | 53 ± 28 |  |  |  |  |  | 
CCCCC1OC(=O)CC1C (stereo not drawn) [Whiskey lactone] |  | 71.3 ± 23 |  | 69.7 ± 22 |  | 62.2 ± 30 | 51.8 ± 29 | 60.2 ± 27 | 50.6 ± 33 |  |  | 
CC=O [acetaldehyde] |  | 40.5 ± 31 |  | 45 ± 22 |  | 37.4 ± 29 | 21.8 ± 26 | 54 ± 24 | 41.4 ± 31 |  |  | 
CC(=O)O [acetic acid] |  |  |  |  |  |  | 21.2 ± 25 | 47.8 ± 24 | 42 ± 32 | 11.8 ± 16 | 46.1 ± 18 | 35.5 ± 32
CC(C)=O [acetone] | 37 ± 32 | 30 ± 29 | 56.6 ± 25 | 51.2 ± 24 | 40.6 ± 28 | 38.8 ± 31 |  |  |  |  |  | 
CC(=O)c1ccccc1 [acetophenone] |  | 81.5 ± 17 |  | 52.8 ± 30 |  | 61.3 ± 31 | 45.1 ± 29 | 52.7 ± 26 | 42.6 ± 30 |  |  | 
C=CCOC(=O)CCCCC [allyl hexanoate] |  | 57.3 ± 29 |  | 71.8 ± 22 |  | 64.1 ± 27 | 24.9 ± 27 | 49.2 ± 19 | 34.4 ± 29 |  |  | 
